Experimental data from patent US6911477B2, “Muscarinic receptor agonists” (Pfizer Inc., priority 1996, dated 2005).
Where a name gives a salt, the structure may show the parent alone.

## c1ccc(N=C(N=C(Nc2ccccc2)c2ccccc2)N2CCCC2)cc1 (as salt: hydrochloride) [Example 1, N-Phenyl-N′-(phenylimino-pyrrolidin-1-yl-methyl)-benzamidine]
  melting point: 246 to 247 °C

## Fc1ccc(NC(=NC(=Nc2ccccc2)N2CCCC2)c2ccccc2)cc1 (as salt: hydrochloride) [Example 2, N-(4-Fluoro-phenyl)-N′-(phenylimino-pyrrolidin-1-yl-methyl)-benzamidine]
  melting point: 259 to 260 °C (dec.)

## Cc1ccccc1C(=NC(=Nc1ccccc1)N1CCC(=O)CC1)Nc1ccc(F)cc1 (as salt: hydrochloride) [Example 8, N-(4-Fluoro-phenyl)-2-methyl-N′-[(4-oxo-piperidin-1-yl)-phenylimino-methyl]-benzamidine]
  melting point: 234 to 235 °C

## Cc1cccc(C)c1C(=NC(=Nc1ccccc1)N1CCC(O)CC1)Nc1ccc(F)cc1 (as salt: hydrochloride) [Example 9, N-(4-Fluoro-phenyl)N′-[(4-hydroxy-piperidin-1-yl)-phenylimino-methyl]-2,6-dimethyl-benzamidine]
  melting point: 163 to 165 °C

## COc1ccc(NC(=NC(=Nc2ccccc2)N2CCCC2)c2ccccc2)cc1 (as salt: hydrochloride) [Example 15, N-(4-methoxy-phenyl)-N′-(phenylimino-pyrrolidin-1-yl-methyl)-benzamidine]
  melting point: 244 to 245 °C

## Clc1ccc(NC(=NC(=Nc2ccccc2)N2CCCC2)c2ccccc2)cc1 (as salt: hydrochloride) [Example 16, N-(4-chloro-phenyl)-N′-(phenylimino-pyrrolidin-1-yl-methyl)-benzamidine]
  melting point: 219 to 221 °C

## Cc1ccccc1C(=NC(=Nc1ccccc1)N1CCCC1)Nc1ccccc1 (as salt: hydrochloride) [Example 20, 2-methyl-N-phenyl-N′-(phenylimino-pyrrolidin-1-yl-methyl)-benzamidine]
  melting point: 191 to 192 °C

## Cc1ccccc1C(=Nc1ccccc1)NC(=Nc1ccccc1)N1CCC(O)CC1 (as salt: hydrochloride) [Example 24, N-[(4-hydroxy-piperidin-1-yl)-phenylimino-methyl]-2-methyl-N′-phenyl-benzamidine]
  melting point: 218 to 220 °C

## Fc1ccc(N=C(NC(=Nc2ccccc2)c2ccccc2)N2CCCC2)cc1 (as salt: hydrochloride) [Example 25, N-[(4-fluoro-phenylimino)-pyrrolidin-1-yl-methyl]-N′-phenyl-benzamidine]
  melting point: 242 to 243 °C

## Cc1ccccc1C(=NC(=Nc1ccccc1)N1CCC(O)CC1)Nc1ccc(F)cc1 (as salt: hydrochloride) [Example 26, N-(4-fluoro-phenyl)-N′-[(4-hydroxy-piperidin-1-yl)-phenylimino-methyl]-2-methyl-benzamidine]
  melting point: 228 to 230 °C (dec.)

## Fc1ccccc1N=C(NC(=Nc1ccccc1)c1ccccc1)N1CCCC1 (as salt: hydrochloride) [Example 27, N-[(2-fluoro-phenylimino)-pyrrolidin-1-yl-methyl]-N′-phenyl-benzamidine]
  melting point: 254 to 255 °C

## Cc1ccccc1C(=NC(=Nc1ccccc1)N1CCCCC1C)Nc1ccc(F)cc1 (stereo not drawn) (as salt: hydrochloride) [Example 28, N-(4-fluoro-phenyl)-2-methyl-N′-[(2-methyl-piperidin-1-yl)-phenylimino-methyl]-benzamidine]
  melting point: 173 to 175 °C

## Cc1ccccc1C(=Nc1ccccc1)NC(=Nc1ccc(F)cc1)N1CCC(O)CC1 (as salt: hydrochloride) [Example 29, N-[(4-fluoro-phenylimino)-(4-hydroxy-piperidin-1-yl)-methyl]-2-methyl-N′-phenyl-benzamidine]
  melting point: 224 to 225 °C

## Clc1ccccc1C(=NC(=Nc1ccccc1)N1CCCC1)Nc1ccccc1 (as salt: hydrochloride) [Example 30, 2-chloro-N-phenyl-N′-(phenylimino-pyrrolidin-1-yl-methyl)-benzamidine]
  melting point: 228 to 230 °C

## Cc1ccccc1C(=Nc1ccc(F)cc1)NC(=Nc1ccccc1)N1CCCCCC1 (as salt: hydrochloride) [Example 34, N-(azepan-1-yl-phenylimino-methyl)-N′-(4-fluoro-phenyl)-2-methyl-benzamidine]
  melting point: 240 to 242 °C

## Cc1cccc(C)c1C(=Nc1ccc(F)cc1)NC(=Nc1ccccc1)N1CCCCC1C (stereo not drawn) (as salt: hydrochloride) [Example 35, N-[(2,6-dimethyl-phenyl)-(4-fluoro-phenylimino)-methyl]-2-methyl-N′-phenyl-piperidine-1-carboxamidine]
  melting point: 181 to 183 °C

## Cc1ccccc1C(=NC(=Nc1ccccc1F)N1CCC(O)CC1)Nc1ccc(F)cc1 (as salt: hydrochloride) [Example 36, N-(4-fluoro-phenyl)-N′-[(2-fluoro-phenylimino)-(4-hydroxy-piperidin-1-yl)-methyl]-2-methyl-benzamidine]
  melting point: 174 to 175 °C

## CC1CCCCN1C(=Nc1ccccc1)NC(=Nc1ccc(F)cc1)c1ccccc1Cl (stereo not drawn) (as salt: hydrochloride) [Example 37, N-[(2-chloro-phenyl)-(4-fluoro-phenylimino)-methyl]2-methyl-N′-phenyl-piperidine-1-carboxamidine]
  melting point: 145 to 147 °C

## Cc1ccccc1C(=NC(=Nc1ccccc1)N1CCCCO1)Nc1ccc(F)cc1 (as salt: hydrochloride) [Example 42, N-(4-fluoro-phenyl)-2-methyl-N′-([1,2]oxazinan-2-yl-phenylimino-methyl)-benzamidine]
  melting point: 199 to 200 °C (dec.)

## Cc1cccc(C)c1C(=NC(=Nc1ccc(F)cc1)N1CCCCC1C)Nc1ccc(F)cc1 (stereo not drawn) (as salt: hydrochloride) [Example 43, N-(4-fluoro-phenyl)-N′-[(4-fluoro-phenylimino)-(2-methyl-piperidin-1-yl)-methyl]-2,6-dimethyl-benzamidine]
  melting point: 162 to 164 °C (dec.)

## CC1CCCCN1C(N=C(Nc1ccc(F)cc1)c1c(Cl)cccc1Cl)=Nc1ccccc1 (stereo not drawn) (as salt: hydrochloride) [Example 45, 2,6-dichloro-N-(4-fluoro-phenyl)-N′-[(2-methyl-piperidin-1-yl)-phenylimino-methyl]-benzamidine]
  melting point: 153 to 155 °C (dec.)

## Cc1cccc(C)c1C(=Nc1ccc(F)cc1)NC(=Nc1ccc(Cl)cc1)N1CCCCC1C (stereo not drawn) (as salt: hydrochloride) [Example 46, N-[(4-chloro-phenylimino)-(2-methyl-piperidin-1-yl)-methyl]-N′-(4-fluoro-phenyl)-2,6-dimethyl-benzamidine]
  melting point: 149 to 151 °C (dec.)

## Cc1ccccc1C(=Nc1ccc(F)cc1)NC(=Nc1ccccc1)C12CC3CC(CC(C3)C1)C2 (as salt: hydrochloride) [Example 47, N-(adamantan-1-yl-phenylimino-methyl)-N′-(4-fluoro-phenyl)-2-methyl-benzamidine]
  melting point: 219 to 221 °C

## Cc1cccc(C)c1C(=Nc1ccc(F)cc1)NC(=Nc1ccccc1)N1C(C)CCCC1C (stereo not drawn) (as salt: hydrochloride) [Example 48, N-[(2,6-dimethyl-piperidin-1-yl)-phenylimino-methyl]-N′-(4-fluoro-phenyl)-2,6-dimethyl-benzamidine]
  melting point: 172 to 174 °C (dec.)

## Cc1cccc(C)c1C(=Nc1ccc(F)cc1)NC(=Nc1ccc(F)cc1)N1CCCCCC1 (as salt: hydrochloride) [Example 49, N-[azepan-1-yl-(4-fluoro-phenylimino)-methyl]-N′-(4-fluoro-phenyl)-2,6-dimethyl-benzamidine]
  melting point: 155 to 157 °C

## Cc1cccc(C)c1C(=NC(=Nc1ccc(F)cc1)N1CCCCO1)Nc1ccc(F)cc1 (as salt: hydrochloride) [Example 50, N-(4-fluoro-phenyl)-N′-[(4-fluoro-phenylimino)-[1,2]oxazinan-2-yl-methyl]-2,6-dimethyl-benzamidine]
  melting point: 213 to 214 °C

## Cc1cccc(C)c1C(=Nc1ccc(F)cc1)NC(=Nc1ccccc1)N1CCCCCC1 (as salt: hydrochloride) [Example 53, N-(azepan-1-yl-phenylimino-methyl)-N′-(4-fluoro-phenyl)-2,6-dimethyl-benzamidine]
  melting point: 243 to 245 °C

## Fc1ccc(N=C(NC(=Nc2ccc(F)cc2)N2CCCCCC2)c2c(F)cccc2F)cc1 (as salt: hydrochloride) [Example 57, N-[azepan-1-yl-(4-fluoro-phenylimino)-methyl]-2,6-difluoro-N′-(4-fluoro-phenyl)-benzamidine]
  melting point: 216 to 218 °C

## CCC1CCCCN1C(=Nc1ccccc1)NC(=Nc1ccc(F)cc1)c1c(C)cccc1C (stereo not drawn) (as salt: hydrochloride) [Example 58, N-[(2-ethyl-piperidin-1-yl)-phenylimino-methyl]-N′-(4-fluoro-phenyl)-2,6-dimethyl-benzamidine]
  melting point: 137 to 139 °C (dec.)

## Cc1cccc(C)c1C(=Nc1ccc(F)cc1)NC(=Nc1ccccc1)N1C(C)CCCC1C (stereo not drawn) (as salt: hydrochloride) [Example 59, N-[(2,6-dimethyl-piperidin-1-yl)-phenylimino-methyl]-N′-(4-fluoro-phenyl)-2,6-dimethyl-benzamidine]
  melting point: 165 to 167 °C (dec.)

## COc1ccc(NC(=NC(=Nc2ccccc2)N2CCCCC2C)c2ccccc2C)cc1 (stereo not drawn) (as salt: hydrochloride) [Example 60, N-(4-methoxy-phenyl)-2-methyl-N′-[(2-methyl-piperidin-1-yl)-phenylimino-methyl]-benzamidine]
  melting point: 162 to 164 °C (dec.)

## Cc1cccc(C)c1C(=NC(=Nc1ccccc1)N1CCCCO1)Nc1ccc(F)cc1 (as salt: hydrochloride) [Example 61, N-(4-fluoro-phenyl)-2,6-dimethyl-N′-([1,2]oxazinan-2-yl-phenylimino-methyl)-benzamidine]
  melting point: 212 to 214 °C (dec.)

## Cc1cccc(C)c1C(=NC(=Nc1ccccc1)N1CCCC(O)C1)Nc1ccc(F)cc1 (stereo not drawn) (as salt: hydrochloride) [Example 62, N-(4-fluoro-phenyl)-N′-[(3-hydroxy-piperidin-1-yl)-phenylimino-methyl]-2,6-dimethyl-benzamidine]
  melting point: 196 to 198 °C (dec.)
